LD50 and ED50 data for twelve compounds are collected here from patent US3935236A, “Aminopropanol substituted isochromanones and phthalides” (Gruppo Lepetit, S.p.A., priority 1973, dated 1976).

A short description of one data set: LD50 os (acute toxicity). To be noted: in vivo, po.
The next data set addresses T1, β-receptors (Canis lupus familiaris, UniProt P79148).
T1 construct: tachycardia in conscious dogs; from tissue; host or cells: heart in the living conscious dog (in vivo, i.v. dosing)
The data set can be described thus: antagonizing isopropylnoradrenaline induced tachycardia in conscious dogs (i.v.). The note with it: dog, iv, read-out: ED50 in antagonizing isopropylnoradrenaline induced tachycardia. Type of data set: in vivo. From the text:
As a standard compound pronethalol was taken into consideration. Pronethalol, i.e. 2-isopropylamino-1-([…])-ethanol, is a known β-blocking agent.

Like-named read-outs stand apart in the source and are kept apart here.

T1 sequence (P79148 whole entry): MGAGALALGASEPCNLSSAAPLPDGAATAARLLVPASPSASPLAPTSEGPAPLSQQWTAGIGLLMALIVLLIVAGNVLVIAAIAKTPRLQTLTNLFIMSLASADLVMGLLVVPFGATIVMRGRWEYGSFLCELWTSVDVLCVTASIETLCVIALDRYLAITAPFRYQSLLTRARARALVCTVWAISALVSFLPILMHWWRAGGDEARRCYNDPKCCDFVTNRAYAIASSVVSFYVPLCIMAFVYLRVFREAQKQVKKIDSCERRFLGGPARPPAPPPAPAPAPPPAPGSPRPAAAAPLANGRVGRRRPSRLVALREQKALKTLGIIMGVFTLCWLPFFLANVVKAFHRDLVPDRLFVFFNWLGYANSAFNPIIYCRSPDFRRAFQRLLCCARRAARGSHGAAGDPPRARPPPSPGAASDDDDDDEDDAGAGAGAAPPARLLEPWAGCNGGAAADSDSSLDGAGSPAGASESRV

For the compound `CC(C)(C)NCC(O)COc1cccc2c1C(=O)OC2.Cl` (centres unmarked) [Example 5, 7-(2-Hydroxy-3-tert-butylamino-propoxy)-phthalide hydrochloride], the LD50 in the data set “LD50 os (acute toxicity)” is > 500 mg/kg.

On to `CC(C)CNCC(O)COc1cccc2c1C(=O)OC2.Cl` (centres unmarked) [Example 10, 7-(2-Hydroxy-3-isobutylamino-propoxy)-phthalide hydrochloride], for which, in the data set “LD50 os (acute toxicity)”, the LD50 was > 500 mg/kg. Also, at β-receptors, the 50% effective dose (ED50) was found to be 0.1 mg/kg.

With `CC(C)NCC(O)COc1ccc2c(c1)C(=O)OC2` (centres unmarked) [Example 2, 6-(2-Hydroxy-3-isopropylamino-propoxy)-phthalide], in “LD50 os (acute toxicity)”, the LD50 is > 500 mg/kg. Further, at β-receptors (conscious dogs, i.v.), the 50% effective dose (ED50) stood at 0.3 mg/kg.

Regarding `COc1cc(OCC(O)CNC(C)(C)C)c2c(c1)C(=O)OC(C)C2.Cl` (centres unmarked) [Example 13, 5-(2-Hydroxy-3-tert-butylamino-propoxy)-7-methoxy-3-methyl-1-isochromanone hydrochloride], the LD50 in the data set “LD50 os (acute toxicity)” was > 500 mg/kg. In addition, the ED50 on β-receptors turned out to be 0.005 mg/kg.

Consider `CC(C)(C)NCC(O)COc1ccc2c(c1)C(=O)OCC2.Cl` (centres unmarked) [Example 7, 7-(2-Hydroxy-3-tert-butylamino-propoxy)-1-isochromanone hydrochloride], for which the LD50 in “LD50 os (acute toxicity)” is > 500 mg/kg. Moreover, the ED50 on β-receptors was 0.055 mg/kg.

For `CC(C)(C)NCC(O)COc1cccc2c1COC2=O.Cl` (centres unmarked) [Example 8, 4-(2-Hydroxy-3-tert-butylaminopropoxy)-phthalide hydrochloride], in the data set “LD50 os (acute toxicity)”, the median lethal dose (LD50) is > 500 mg/kg. Further, the ED50 on β-receptors came out at 0.07 mg/kg.

Regarding `CCC1Cc2c(OCC(O)CNC(C)(C)C)cc(OC)cc2C(=O)O1.Cl` (centres unmarked) [Example 14, 3-Ethyl-5-(2-hydroxy-3-tert-butylamino-propoxy)-7-methoxy-1-isochromanone hydrochloride], the 50% lethal dose (LD50) in “LD50 os (acute toxicity)” was > 500 mg/kg. Further, at β-receptors, the ED50 is 0.1 mg/kg.

As to `CC(C)(C)NCC(O)COc1cccc2c1C(=O)OCC2.Cl` (centres unmarked) [Example 12, 8-(2-Hydroxy-3-tert-butylamino-propoxy)-1-isochromanone hydrochloride], the LD50 in “LD50 os (acute toxicity)” is > 500 mg/kg. The ED50 on β-receptors came out at 0.003 mg/kg.

On to `COc1cc(OCC(O)CNC(C)(C)C)c2c(c1)C(=O)OC(C)(C)C2.O=C(O)C(=O)O` (centres unmarked) [Example 15, 5-(2-Hydroxy-tert-butylamino-propoxy)-7-methoxy-3,3-dimethyl-1-isochromanone oxalate], for which the LD50 in the data set “LD50 os (acute toxicity)” was > 500 mg/kg. The ED50 on β-receptors was determined as 0.018 mg/kg.

On to `CC(C)NCC(O)COc1cccc2c1C(=O)OC2.Cl` (centres unmarked) [Example 1, 7-(2-Hydroxy-3-isopropylamino-propoxy)-phthalide hydrochloride], for which the LD50 in the data set “LD50 os (acute toxicity)” was > 500 mg/kg. Besides, the 50% effective dose (ED50) at β-receptors worked out at 0.01 mg/kg.

Consider `CC(C)(C)NCC(O)COc1ccc2c(c1)C(=O)OC2.Cl` (centres unmarked) [Example 9, 6-(2-Hydroxy-3-tert-butylamino-propoxy)-phthalide hydrochloride], for which, in “LD50 os (acute toxicity)”, the LD50 was > 500 mg/kg. Moreover, on β-receptors, the 50% effective dose (ED50) came out at 0.1 mg/kg.

Take `CC(C)NCC(O)COc1ccc2c(c1)C(=O)OCC2.Cl` (centres unmarked) [Example 6, 7-(2-Hydroxy-3-isopropylamino-propoxy)-1-isochromanone hydrochloride]: the LD50 in the data set “LD50 os (acute toxicity)” is > 500 mg/kg. Moreover, the 50% effective dose (ED50) on β-receptors turned out to be 0.1 mg/kg.
